Measured values taken from ChEMBL document CHEMBL4507291 (2021).

Key:
[1] = biological target: Eukaryotic elongation factor 2 kinase (Homo sapiens) (UniProt O00418); test: EEF2K Kinase screen; conditions: Compound concentration 1.0 uM
[2] = biological target: ATP-sensitive inward rectifier potassium channel 11 (Cricetulus griseus) (UniProt A0A3L7HHE1); test: Inhibition of Potassium Channel [KATP] at 10 µM in the Eurofins-Panlabs radioligand binding assay (Eurofins_assay_265600); conditions: Cricetinae; Compound concentration 10.0 uM
[3] = biological target: Dual specificity mitogen-activated protein kinase kinase 1 (Homo sapiens) (UniProt Q02750); test: MAP2K1 (MEK1) Kinase screen; conditions: Compound concentration 1.0 uM
[4] = biological target: RAC-alpha serine/threonine-protein kinase (Homo sapiens) (UniProt P31749); test: AKT1 (PKB alpha) Kinase screen; conditions: Compound concentration 1.0 uM
Chain of RAC-alpha serine/threonine-protein kinase (Homo sapiens) (P31749 whole entry): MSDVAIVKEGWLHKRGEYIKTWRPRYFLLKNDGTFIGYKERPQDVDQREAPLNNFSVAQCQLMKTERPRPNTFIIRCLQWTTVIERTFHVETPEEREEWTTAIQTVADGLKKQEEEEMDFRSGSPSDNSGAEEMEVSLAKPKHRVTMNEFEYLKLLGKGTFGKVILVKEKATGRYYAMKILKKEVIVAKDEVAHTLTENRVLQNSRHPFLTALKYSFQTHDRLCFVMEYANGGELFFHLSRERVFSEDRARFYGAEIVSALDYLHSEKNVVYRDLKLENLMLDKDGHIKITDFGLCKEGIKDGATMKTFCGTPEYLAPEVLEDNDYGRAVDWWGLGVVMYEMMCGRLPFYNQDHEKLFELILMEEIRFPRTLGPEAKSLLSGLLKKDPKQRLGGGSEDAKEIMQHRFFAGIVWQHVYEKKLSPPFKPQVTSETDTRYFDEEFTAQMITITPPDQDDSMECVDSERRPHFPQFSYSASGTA

[5] = biological target: Serine/threonine-protein kinase PLK2 (Homo sapiens) (UniProt Q9NYY3); test: PLK2 Kinase screen; conditions: Compound concentration 1.0 uM
Chain of Serine/threonine-protein kinase PLK2 (Homo sapiens) (Q9NYY3 whole entry, looked up): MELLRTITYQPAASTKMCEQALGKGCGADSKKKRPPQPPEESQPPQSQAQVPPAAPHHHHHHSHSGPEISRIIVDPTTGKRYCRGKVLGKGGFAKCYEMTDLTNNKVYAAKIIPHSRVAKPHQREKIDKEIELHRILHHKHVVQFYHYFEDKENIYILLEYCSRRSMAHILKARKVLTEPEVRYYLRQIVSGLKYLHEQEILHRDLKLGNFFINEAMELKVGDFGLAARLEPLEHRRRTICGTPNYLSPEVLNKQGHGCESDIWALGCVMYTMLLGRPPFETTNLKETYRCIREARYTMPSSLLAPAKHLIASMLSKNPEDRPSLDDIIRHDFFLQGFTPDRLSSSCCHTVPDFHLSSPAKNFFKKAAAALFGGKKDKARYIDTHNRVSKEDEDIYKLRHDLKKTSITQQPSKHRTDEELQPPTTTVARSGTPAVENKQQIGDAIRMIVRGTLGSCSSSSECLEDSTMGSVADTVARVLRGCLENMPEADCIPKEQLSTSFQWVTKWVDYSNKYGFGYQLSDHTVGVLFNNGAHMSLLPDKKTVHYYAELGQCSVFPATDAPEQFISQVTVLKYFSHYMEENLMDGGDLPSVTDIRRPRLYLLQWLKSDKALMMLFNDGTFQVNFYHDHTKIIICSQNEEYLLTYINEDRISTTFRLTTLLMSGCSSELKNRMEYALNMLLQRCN

[6] = biological target: Ribosomal protein S6 kinase alpha-5 (Homo sapiens) (UniProt O75582); test: RPS6KA5 (MSK1) Kinase screen; conditions: Compound concentration 1.0 uM
Chain of Ribosomal protein S6 kinase alpha-5 (Homo sapiens) (O75582 whole entry, looked up): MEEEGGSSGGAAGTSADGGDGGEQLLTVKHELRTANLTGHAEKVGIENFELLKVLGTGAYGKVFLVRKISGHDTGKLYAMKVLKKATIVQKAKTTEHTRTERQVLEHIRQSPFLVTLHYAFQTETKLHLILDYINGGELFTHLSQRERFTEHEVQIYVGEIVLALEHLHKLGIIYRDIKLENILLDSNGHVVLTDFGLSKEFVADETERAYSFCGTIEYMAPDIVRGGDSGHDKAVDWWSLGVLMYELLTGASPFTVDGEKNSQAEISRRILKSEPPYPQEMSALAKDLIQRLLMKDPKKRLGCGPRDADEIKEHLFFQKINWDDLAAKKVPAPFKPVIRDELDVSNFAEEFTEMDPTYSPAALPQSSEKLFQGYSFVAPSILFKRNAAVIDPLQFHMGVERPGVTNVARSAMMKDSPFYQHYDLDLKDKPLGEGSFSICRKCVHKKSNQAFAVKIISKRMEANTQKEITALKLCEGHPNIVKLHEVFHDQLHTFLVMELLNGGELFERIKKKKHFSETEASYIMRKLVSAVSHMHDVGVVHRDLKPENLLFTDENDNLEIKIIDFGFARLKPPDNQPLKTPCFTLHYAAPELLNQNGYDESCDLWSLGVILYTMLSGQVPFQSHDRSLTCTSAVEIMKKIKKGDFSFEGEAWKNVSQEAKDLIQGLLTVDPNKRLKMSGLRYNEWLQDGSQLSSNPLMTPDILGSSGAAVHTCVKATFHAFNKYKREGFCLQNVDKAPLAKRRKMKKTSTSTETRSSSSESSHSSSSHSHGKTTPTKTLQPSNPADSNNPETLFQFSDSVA

[7] = biological target: T1, Serine/threonine-protein kinase Sgk3 (Homo sapiens) (UniProt Q96BR1); test: SGKL (SGK3) Kinase screen; conditions: Compound concentration 1.0 uM
T1 sequence (whole entry): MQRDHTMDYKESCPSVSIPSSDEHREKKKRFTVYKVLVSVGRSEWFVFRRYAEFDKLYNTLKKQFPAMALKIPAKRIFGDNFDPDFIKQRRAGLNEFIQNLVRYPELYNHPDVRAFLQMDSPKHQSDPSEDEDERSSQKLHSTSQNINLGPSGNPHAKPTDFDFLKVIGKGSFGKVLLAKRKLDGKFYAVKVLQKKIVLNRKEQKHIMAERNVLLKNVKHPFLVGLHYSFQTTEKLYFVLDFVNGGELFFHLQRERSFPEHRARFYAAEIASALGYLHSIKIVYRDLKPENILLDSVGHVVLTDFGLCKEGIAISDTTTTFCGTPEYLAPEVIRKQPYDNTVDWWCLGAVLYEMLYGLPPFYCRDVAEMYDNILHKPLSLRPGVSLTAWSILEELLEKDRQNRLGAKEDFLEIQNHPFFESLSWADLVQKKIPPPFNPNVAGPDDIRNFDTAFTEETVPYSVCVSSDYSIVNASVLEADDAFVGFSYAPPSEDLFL

[8] = biological target: Serine/threonine-protein kinase MARK1 (Homo sapiens) (UniProt Q9P0L2); test: MARK1 (MARK) Kinase screen; conditions: Compound concentration 1.0 uM
[9] = biological target: T2, 5-hydroxytryptamine receptor 3A (Homo sapiens) (UniProt P46098); test: Inhibition of Serotonin (5-Hydroxytryptamine) 5-HT3 at 10 µM in the Eurofins-Panlabs radioligand binding assay (Eurofins_assay_271910); design: ligand concentration 0.69 nM; conditions: Compound concentration 10.0 uM
T2 sequence (whole entry): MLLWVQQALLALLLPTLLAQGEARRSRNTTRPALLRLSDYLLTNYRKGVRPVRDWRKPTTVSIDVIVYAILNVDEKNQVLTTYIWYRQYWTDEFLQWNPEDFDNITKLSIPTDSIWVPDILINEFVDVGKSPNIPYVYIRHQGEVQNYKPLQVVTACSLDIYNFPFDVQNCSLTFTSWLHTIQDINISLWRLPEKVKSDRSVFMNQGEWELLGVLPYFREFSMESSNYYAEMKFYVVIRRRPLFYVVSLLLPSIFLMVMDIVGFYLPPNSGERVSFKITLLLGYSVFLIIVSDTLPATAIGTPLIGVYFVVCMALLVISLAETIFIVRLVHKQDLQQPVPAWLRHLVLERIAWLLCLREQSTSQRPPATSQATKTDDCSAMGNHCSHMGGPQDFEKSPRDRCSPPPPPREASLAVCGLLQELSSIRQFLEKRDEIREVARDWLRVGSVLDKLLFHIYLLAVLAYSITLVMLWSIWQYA

[10] = biological target: Myosin light chain kinase 2, skeletal/cardiac muscle (Homo sapiens) (UniProt Q9H1R3); test: MLCK (MLCK2) Kinase screen; conditions: Compound concentration 1.0 uM
[11] = biological target: Cathepsin G (Homo sapiens) (UniProt P08311); test: Inhibition of Peptidase, CTSG (Cathepsin G) at 10 µM in the Eurofins-Panlabs enzyme assay (Eurofins_assay_112510); design: substrate with concentration; conditions: Compound concentration 10.0 uM
Chain of Cathepsin G (Homo sapiens) (P08311 whole entry): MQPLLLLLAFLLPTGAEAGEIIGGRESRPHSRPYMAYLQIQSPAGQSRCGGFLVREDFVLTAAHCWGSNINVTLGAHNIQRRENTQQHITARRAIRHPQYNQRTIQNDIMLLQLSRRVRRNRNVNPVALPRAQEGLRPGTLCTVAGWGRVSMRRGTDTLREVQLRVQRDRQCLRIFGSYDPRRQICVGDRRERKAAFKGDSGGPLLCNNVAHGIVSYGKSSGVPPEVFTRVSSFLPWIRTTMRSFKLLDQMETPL

[12] = biological target: Substance-K receptor (Homo sapiens) (UniProt P21452); test: Inhibition of Tachykinin NK2 at 10 µM in the Eurofins-Panlabs radioligand binding assay (Eurofins_assay_255600); design: ligand concentration 0.5 nM; conditions: Compound concentration 10.0 uM
Chain of Substance-K receptor (Homo sapiens) (P21452 whole entry): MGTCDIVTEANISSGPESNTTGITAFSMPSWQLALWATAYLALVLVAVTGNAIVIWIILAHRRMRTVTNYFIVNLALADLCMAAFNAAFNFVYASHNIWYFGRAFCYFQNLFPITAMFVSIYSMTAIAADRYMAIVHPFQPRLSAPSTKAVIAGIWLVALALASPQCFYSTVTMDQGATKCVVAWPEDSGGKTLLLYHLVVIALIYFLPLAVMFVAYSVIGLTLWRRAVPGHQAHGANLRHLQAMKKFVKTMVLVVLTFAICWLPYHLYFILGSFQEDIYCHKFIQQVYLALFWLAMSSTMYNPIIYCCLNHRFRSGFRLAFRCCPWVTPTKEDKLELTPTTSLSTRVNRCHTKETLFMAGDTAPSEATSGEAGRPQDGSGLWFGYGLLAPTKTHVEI

[13] = biological target: Dual specificity protein kinase CLK2 (Homo sapiens) (UniProt P49760); test: CLK2 Kinase screen; conditions: Compound concentration 1.0 uM
Chain of Dual specificity protein kinase CLK2 (Homo sapiens) (P49760 whole entry, looked up): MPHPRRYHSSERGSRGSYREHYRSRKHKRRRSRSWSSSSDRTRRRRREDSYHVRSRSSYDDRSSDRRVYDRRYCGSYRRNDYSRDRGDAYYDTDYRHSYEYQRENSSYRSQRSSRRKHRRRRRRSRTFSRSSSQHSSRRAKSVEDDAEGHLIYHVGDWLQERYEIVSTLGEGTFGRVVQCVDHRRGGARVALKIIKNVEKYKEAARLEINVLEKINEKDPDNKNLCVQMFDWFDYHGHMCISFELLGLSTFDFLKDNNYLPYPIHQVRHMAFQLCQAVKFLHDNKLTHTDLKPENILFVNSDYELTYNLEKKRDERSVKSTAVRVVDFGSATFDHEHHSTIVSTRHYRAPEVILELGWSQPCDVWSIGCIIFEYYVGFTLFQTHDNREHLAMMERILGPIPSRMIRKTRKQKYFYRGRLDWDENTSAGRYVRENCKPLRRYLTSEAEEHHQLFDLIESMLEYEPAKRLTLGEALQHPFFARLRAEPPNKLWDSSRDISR

[14] = biological target: T3, Megakaryocyte-associated tyrosine-protein kinase (Homo sapiens) (UniProt P42679); test: MATK (HYL) Kinase screen; conditions: Compound concentration 1.0 uM
T3 sequence (whole entry): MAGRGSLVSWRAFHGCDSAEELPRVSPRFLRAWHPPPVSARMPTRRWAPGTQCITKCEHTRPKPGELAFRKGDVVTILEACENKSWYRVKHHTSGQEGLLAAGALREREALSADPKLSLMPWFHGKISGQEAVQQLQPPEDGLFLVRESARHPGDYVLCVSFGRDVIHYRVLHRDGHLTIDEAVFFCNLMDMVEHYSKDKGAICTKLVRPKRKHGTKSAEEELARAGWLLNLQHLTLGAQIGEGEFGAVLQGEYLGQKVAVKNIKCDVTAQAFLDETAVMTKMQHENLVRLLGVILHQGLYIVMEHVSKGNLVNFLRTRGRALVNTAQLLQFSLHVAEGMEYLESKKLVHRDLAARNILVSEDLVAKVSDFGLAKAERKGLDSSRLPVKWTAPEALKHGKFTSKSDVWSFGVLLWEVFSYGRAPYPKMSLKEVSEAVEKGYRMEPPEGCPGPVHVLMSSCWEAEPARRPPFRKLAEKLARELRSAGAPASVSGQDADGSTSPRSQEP

[15] = test system: Epidermal growth factor receptor (Homo sapiens), P00533 [L858R,T790M]; test: EGFR (ErbB1) T790M L858R Kinase screen; conditions: Compound concentration 1.0 uM
[16] = biological target: SRSF protein kinase 1 (Homo sapiens) (UniProt Q96SB4); test: SRPK1 Kinase screen; conditions: Compound concentration 1.0 uM
Chain of SRSF protein kinase 1 (Homo sapiens) (Q96SB4 whole entry): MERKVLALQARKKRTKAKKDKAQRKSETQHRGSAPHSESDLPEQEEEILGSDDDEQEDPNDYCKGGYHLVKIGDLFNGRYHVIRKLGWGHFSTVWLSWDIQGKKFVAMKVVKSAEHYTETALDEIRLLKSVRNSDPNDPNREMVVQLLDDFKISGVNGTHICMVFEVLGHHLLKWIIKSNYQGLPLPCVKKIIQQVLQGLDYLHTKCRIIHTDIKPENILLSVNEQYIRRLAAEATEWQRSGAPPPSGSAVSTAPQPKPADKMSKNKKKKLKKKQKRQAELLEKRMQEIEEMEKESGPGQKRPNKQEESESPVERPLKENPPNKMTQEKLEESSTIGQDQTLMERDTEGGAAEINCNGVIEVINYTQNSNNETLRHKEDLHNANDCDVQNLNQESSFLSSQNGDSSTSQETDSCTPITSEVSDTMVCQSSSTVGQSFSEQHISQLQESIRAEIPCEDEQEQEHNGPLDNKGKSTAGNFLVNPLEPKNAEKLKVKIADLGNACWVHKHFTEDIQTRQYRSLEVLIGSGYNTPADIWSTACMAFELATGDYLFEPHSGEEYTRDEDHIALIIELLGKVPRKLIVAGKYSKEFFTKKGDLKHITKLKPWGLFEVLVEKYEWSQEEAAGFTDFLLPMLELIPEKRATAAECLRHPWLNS

[17] = biological target: Dual specificity protein kinase CLK4 (Homo sapiens) (UniProt Q9HAZ1); test: CLK4 Kinase screen; conditions: Compound concentration 1.0 uM
Chain of Dual specificity protein kinase CLK4 (Homo sapiens) (Q9HAZ1 whole entry, looked up): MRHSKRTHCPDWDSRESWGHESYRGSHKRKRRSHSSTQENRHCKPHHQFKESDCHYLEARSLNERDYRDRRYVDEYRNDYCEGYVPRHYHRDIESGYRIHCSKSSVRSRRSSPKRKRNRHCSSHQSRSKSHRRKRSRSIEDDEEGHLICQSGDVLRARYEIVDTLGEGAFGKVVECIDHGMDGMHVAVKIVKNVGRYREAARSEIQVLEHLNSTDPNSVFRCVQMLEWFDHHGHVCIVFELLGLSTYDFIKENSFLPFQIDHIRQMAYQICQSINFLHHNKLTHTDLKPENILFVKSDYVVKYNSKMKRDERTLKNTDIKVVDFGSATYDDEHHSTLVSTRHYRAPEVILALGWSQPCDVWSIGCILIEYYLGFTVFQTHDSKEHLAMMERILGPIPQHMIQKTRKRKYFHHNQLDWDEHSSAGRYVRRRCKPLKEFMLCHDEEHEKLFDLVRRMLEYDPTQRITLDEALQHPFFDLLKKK

[18] = biological target: 3-phosphoinositide-dependent protein kinase 1 (PDPK1) (Homo sapiens) (UniProt O15530); test: PDK1 Direct Kinase screen; conditions: Compound concentration 1.0 uM
Chain of 3-phosphoinositide-dependent protein kinase 1 (PDPK1) (Homo sapiens) (O15530 whole entry, looked up): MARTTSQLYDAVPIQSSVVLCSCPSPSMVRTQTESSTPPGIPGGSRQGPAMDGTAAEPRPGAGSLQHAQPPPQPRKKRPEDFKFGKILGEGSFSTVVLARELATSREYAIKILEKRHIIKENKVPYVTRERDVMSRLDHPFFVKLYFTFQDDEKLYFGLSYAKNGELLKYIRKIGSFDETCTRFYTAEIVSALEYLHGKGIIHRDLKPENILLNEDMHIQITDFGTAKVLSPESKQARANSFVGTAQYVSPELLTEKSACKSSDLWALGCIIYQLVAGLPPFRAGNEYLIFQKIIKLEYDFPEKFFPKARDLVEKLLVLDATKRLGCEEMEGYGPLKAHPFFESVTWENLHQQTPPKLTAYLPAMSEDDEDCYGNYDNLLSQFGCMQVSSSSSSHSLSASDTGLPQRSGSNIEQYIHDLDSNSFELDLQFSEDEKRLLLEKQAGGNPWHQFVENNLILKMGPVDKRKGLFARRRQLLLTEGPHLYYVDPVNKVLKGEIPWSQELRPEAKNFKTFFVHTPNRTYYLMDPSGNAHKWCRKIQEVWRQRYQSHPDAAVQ

Measured: inhibition

C[C@@H]1CN(c2cc(-c3n[nH]c4ccc(OC5(C)CC5)cc34)ncn2)C[C@H](C)O1 [MLi-2]
inactive: [1] 4.28% | [2] 18% | [3] 8.27% | [4] 6.75% | [5] 12.7% | [6] 0.435% | [7] 0.213% | [8] 8.35% | [9] -9% | [10] 1.73% | [11] 9% | [12] 27% | [13] 55% | [14] 3.28% | [15] 2.37% | [16] 6.15% | [17] 80.1% | [18] -2.36%
